According to patent US20130059793A1, “EGF RECEPTOR MIMICKING PEPTIDES” (BOARD OF REGENTS, THE UNIVERSITY OF TEXAS SYSTEM, priority 2010, published 2013):
Square brackets hold non-standard residues; d marks the D form. Ends that are not written are not given here.

Test system: binding of cetuximab to the EGFR
Test: ELISA inhibition of binding of cetuximab to the EGFR by synthetic peptides (FIG. 3B, FIGS. 7A-C)
Settings: ELISA, FIG. 3B
Description: (§1) BSA served as an additional negative control, and the EGFR, as a positive control. […] Insertless phage served as a negative control. […] Bars represent mean±SEM.
Similar methodologies have been applied to therapeutic (Binder et al., 2006; Binder et al., 2007; Riemer et al., 2005) or diagnostic (Jaalouk et al., 2007) antibodies in a strategy that could reveal mechanisms of action (Binder et al., 2007), identify biological reagents for immunization (Riemer et al., 2005), or discover unrecognized antigens (Jaalouk et al., 2007).

| inhibition of binding of cetuximab to the EGFR | Substance |
| --- | --- |
| Concentration-dependent inhibition | CVRACGAD (not fully specified (bridges); also: cyclic, ring type and places not given here) [synthetic cyclic peptide, EGFR residues 283-290] |

Same assay, conditions: FIGS. 7A-C

| Substance | initial functional screen of consensus motif panel (n=15) with cetuximab |
| --- | --- |
| CVRACGAD (not fully specified (bridges); also: cyclic, ring type and places not given here) [synthetic cyclic peptide, EGFR residues 283-290] | best concentration-dependent ligand peptide |

Test system: cetuximab
Test: Binding of synthetic peptides to cetuximab (ELISA-based, FIG. 3A, FIG. 4B)
Settings: FIG. 4B (peptides plated at 10 μg/ml)
Description: as §1
(§2) A representative experiment is depicted. […] Bars represent mean±SEM. […] (FIG. 4C) Effect of the synthetic peptides on HN5 tumor cells. […] Viability in the absence of peptide was set to 100%. […] Bars represent mean±SEM. […] Receptors were immunoprecipitated with antibodies against phosphorylated (p) pEGFR and were immunoblotted with anti-phosphotyrosine IgG.
The EGFR served as an immobilized positive control, and BSA or control peptides (CVAAC) served as immobilized negative controls.

| binding of synthetic peptide to cetuximab | Substance |
| --- | --- |
| specifically bind to cetuximab | CVRACGAD (not fully specified (bridges); also: cyclic, ring type and places not given here) [synthetic cyclic peptide, EGFR residues 283-290] |

Test system: EGFR ligands EGF, TGFα, and cetuximab
Test: Combinatorial CX7C phage library screening on EGFR ligands; consensus motifs (Table 1)
Format: binding
Settings: EGFR ligand(s) on which the overlapping consensus motif was selected
Experimental: Phage peptide screening and binding assays were performed as described (Cardó-Vila et al., 2003). A random phage peptide library displaying the insert CX7C (where X is any amino acid and C is a cysteine residue) was used for the screening; phage input was 3×10^9 transducing units (TU). Antibodies, EGF, or TGF-α (R&D Systems) were coated onto microtiter wells as described (Smith and Scott, 1993). […] Wells were washed twice with PBS, blocked with PBS containing 3% BSA for 1 hr at room temperature (RT), and incubated with the phage library in 50 μl PBS containing 1.5% BSA. After 2 hr at RT, wells were washed ten times with PBS, and phage were recovered by bacterial infection as described (Smith and Scott, 1993; Giordano et al., 2001; Cardó-Vila et al., 2003). […] Purification of phage particles and sequencing of phage single-stranded (ss) DNA were performed as described (Arap et al., 1998; Pasqualini et al., 2001). Phage ssDNA from 96 individual clones from each of the second, third, and fourth rounds of selection were prepared, and inserts were sequenced.
Peptide-matching software (Mandava et al., 2004) was used to identify motifs resembling targeted ligands. To identify motifs resembling targeted ligands among the selected sequences, the inventors used a peptide-matching software program based on RELIC, an established bioinformatics server for combinatorial peptide analysis and identification of protein-ligand interaction sites (Mandava et al., 2004), designed and implemented through Perl 5.8.1. The program calculates similarity based on a pre-defined amino acid window size (defined empirically and experimentally) between an affinity-selected peptide sequence and the target protein sequence from N-terminus to C-terminus in one-residue shifts to fit the best alignment. The peptide-protein similarity scores for each amino acid residue were calculated based on an amino acid substitution matrix modified to adjust for rare residue representation. In this case, similarity scores were calculated based on a 5-residue window, with every pentamer motif in each selected peptide compared to each pentamer segment of the protein. Empirical similarity score thresholds were set with at least three identical residues plus one similar residue between the peptide and the protein segment.
A combinatorial approach was used to identify consensus protein-interacting sites within the EGFR. […] Serial enrichment in all selections was observed (FIGS. 1A-C). Bovine serum albumin (BSA), VEGF, and irrelevant IgG served as negative controls.
A comprehensive protein similarity analysis of selected peptides (n=384) was performed to identify sequences resembling the extracellular domain of the EGFR. Overlapping consensus motifs selected in all three EGFR ligands were identified, mapped, and consolidated within the five dominant candidate regions (Cys227-Cys240, Cys283-Asp290, Cys486-Cys491, Cys547-Cys567, Cys604-Lys618; not accounting for the signal peptide, as indicated) within the primary structure of the receptor (FIG. 2A, yellow highlights).

| Substance | Selected on |
| --- | --- |
| AQQCSGRCRGKSPSD [synthetic EGFR-mimicking peptide] | EGF & TGFα |
| CKDTC [synthetic EGFR-mimicking peptide] | All EGFR ligands |
| CLPQAMNIT [synthetic EGFR-mimicking peptide] | Cetuximab |
| CPAGVM [synthetic EGFR-mimicking peptide] | Cetuximab |
| CQKCDPSC | Cetuximab & TGFα |
| CRKFRDEATC [synthetic EGFR-mimicking peptide] | All EGFR ligands |
| CSPEGC (also: cyclic, ring type not given here) [synthetic EGFR-mimicking peptide] | All EGFR ligands |
| CTGPGLEGCPTNGPK [synthetic EGFR-mimicking peptide] | All EGFR ligands |
| CTGRGPDNCIQ [synthetic EGFR-mimicking peptide] | All EGFR ligands |
| CVRACGAD (not fully specified (bridges); also: cyclic, ring type and places not given here) [synthetic cyclic peptide, EGFR residues 283-290] | All EGFR ligands |
| IIRGRTK [synthetic EGFR-mimicking peptide] | EGF & TGFα |
| IQCAHYIDGPHC [synthetic EGFR-mimicking peptide] | All EGFR ligands |
| PNGSCW [synthetic EGFR-mimicking peptide] | Cetuximab |
| QRNYDLSFL [synthetic EGFR-mimicking peptide] | EGF & TGFα |
| THTPPLDPQEL [synthetic EGFR-mimicking peptide] | EGF & TGFα |

Test system: EGFR
Test: EGF-induced EGFR autophosphorylation (immunoprecipitation, anti-phosphotyrosine blot)
Format: cell-based, human
Settings: HN5 tumor cells, EGF 15 min, FIG. 4E
Description: as §2

| Substance | EGF-induced tyrosine phosphorylation of the EGFR |
| --- | --- |
| D(CAAVC) ([dC][dA][dA][dV][dC]; cysteine pairing not given here; also: peptidomimetic) [negative control peptidomimetic with a mutation corresponding to EGFR Arg285Ala, reference compound] | not |
